Patent US20220017471A1, “FUNCTIONALITY INDEPENDENT LABELING OF ORGANIC COMPOUNDS” (Shanghai Tech University, priority 2018, published 2022)
Structures can show the parent of a compound that is named as a salt.

Columns and labels:
[1] = biological target: T1, heat shock 70 kDa protein (HSP70) (Homo sapiens, UniProt P0DMV8); experiment: nDEL affinity selection against HSP70 (enrichment fold by deep sequencing); type: binding; settings: ratio of normalized sequencing counts in presence and absence of target protein; DNA-encoded compound
T1 construct: purchased Sino Biological 11660-H07H
Method: (§1) The panning procedure for these two soluble protein were the same. 5 μg of target protein was mixed with Ni-charged MagBeads (GenScript, Cat. #L00295), 5 nM DEL library and 10 μg/mL Salmon sperm DNA. The final volume to adjusted to 100 μL. The mixture was rotated at room temperature for 1.5 h. After washing 5 times by phosphate-buffered saline supplemented 0.05% Tween-20 (PBST), the target protein binding chemical-DNA conjugations were eluted by heating at 95° C. for 10 min in 50 μL elution buffer (20 mM Tris, pH 7.4, 100 mM NaCl). The eluted DEL compounds were amplified by PCR using Takara PrimerSTAR Max DNA Polymerase (Takara, Cat. #R045A). Then the excess primers was removed by Hieff NGS™ smarter DNA clean beads (Yeasen, Cat. #12600E503) and evaluated on 4% DNA agarose gel. The amplified products was subjected for high-throughput sequencing using Illumina HiSeq X10 Analyzer.
The combinatorial chemical library was constructed by three building block sub libraries, containing 6, 46 and 46 chemical building blocks respectively for the first, second and third building block libraries, respectively. Each building block was encoded by a 10-base pair (bp) DNA sequence. The natural products were encoded by a 30-bp DNA sequence, same length as the combinatorial chemical library DNA codes. […] After sequencing, the Illumina adaptors around the DNA coding sequences were trimmed by CLC genomics workbench version 12 (Qiagen). The left DNA coding sequences were 30 bp in length corresponding to the three DNA sequences of building blocks in 3 rounds of “split-pool” iterations. For each sample, the DNA coding sequences were mapped to the reference DNA encoding compound library. No mismatch was allowed in the mapping. The coding sequences were counted for all the compounds across different samples. The total read-counts of all the compounds in a given sample were calculated. The read-counts for each individual compound were divided by the total counts, multiplied with a constant of 100000.
(§2) NormalizedCountCompoundM,SampleA=CountCompoundM,SampleA/(TotalCountSampleA)*100000
The fold changes of each compound in the after-selection library comparing to the reference library were calculated.
(§3) FoldChangeCompoundM=NormalizedCountCompoundM,SampleA/NormalizedCountCompoundM,Ref
(§4) The hit criteria of nDEL screening take into account of both the normalized enrichment fold values (y-axis) and deep sequencing read counts (x-axis). Compounds with read counts less than 10 are considered unreliable, thus they are eliminated immediately from DEL before on-target screening. For each DEL library, a baseline enrichment fold is recorded in the absence of target protein, and a normalized enrichment fold value can be calculated for each DEL compound in the library. The cutoff for hits identification is based on a simplified statistical analysis of a highly diverse population of data, which is the sum of average value of enrichment-folds of the whole library (μ) plus 3 times of the standard deviation (σ).
Two target proteins with different cellular locations and biophysical properties were used in nDEL screens. […] The known functional binders for these targets were included in nDEL as internal positive controls, e.g., oridonin for HSP70 and derivatives of olaparib (F001, F002, F003 and F006) for PARP-1. To account for the non-uniform distribution of DNA barcodes in nDEL, a blank screen of nDEL in the absence of target proteins but presence of immobilization matrix beads was carried out first and followed by deep-sequencing to establish the baseline distribution of barcodes in the library. All screening data were analyzed using the method described by Decurtins et al., Nat Protoc. […] The corresponding DNA sequence of each nDEL compound were tallied based on its sequencing counts. The enrichment fold is calculated as the ratio of normalized sequencing counts in the presence and absence of target protein.

[2] = biological target: T2, poly [ADP-ribose] polymerase 1 (PARP1) (Homo sapiens, UniProt P09874); experiment: nDEL affinity selection against PARP-1 (enrichment fold by deep sequencing); type: binding; settings: for Fold Change, enrichment folds for PARP-1 binder selection: ratio of normalized sequencing counts in presence and absence of target protein, DNA-encoded compound
T2 construct: purchased Sino Biological 11040-H08B
Method: as §1, with “The his-tag fused recombinant human PARP-1 (Sino Biological, Cat. #11040-H08B) and human-HSP70 (Sino Biological, Cat. #11660-H07H) were obtained from commercial source. The panning” for “The panning”
The combinatorial chemical library was constructed by three building block sub libraries, containing 6, 46 and 46 chemical building blocks respectively for the first, second and third building block libraries, respectively. Each building block was encoded by a 10-base pair (bp) DNA sequence. The natural products were encoded by a 30-bp DNA sequence, same length as the combinatorial chemical library DNA codes. All the possible combinations (combinatorial chemical compounds) between these three sub libraries were generated by an inhouse java program, which generated a reference DNA encoding library contains 12696 DNA encoding sequences. After sequencing, the Illumina adaptors around the DNA coding sequences were trimmed by CLC genomics workbench version 12 (Qiagen). The left DNA coding sequences were 30 bp in length corresponding to the three DNA sequences of building blocks in 3 rounds of “split-pool” iterations. For each sample, the DNA coding sequences were mapped to the reference DNA encoding compound library. No mismatch was allowed in the mapping. The coding sequences were counted for all the compounds across different samples. The total read-counts of all the compounds in a given sample were calculated. The read-counts for each individual compound were divided by the total counts, multiplied with a constant of 100000.
as §2
The fold changes of each compound in the after-selection library comparing to the reference library were calculated. For example, if SampleA and Reference library were compared, for the fold change of CompoundM was calculated as:
as §3, §4
Two target proteins with different cellular locations and biophysical properties were used in nDEL screens. […] The known functional binders for these targets were included in nDEL as internal positive controls, e.g., oridonin for HSP70 and derivatives of olaparib (F001, F002, F003 and F006) for PARP-1.

In the case of `Cc1ncc(CO)c(CO)c1O` [Pyridoxine, reference compound], the “Enrichment Fold, HSP70 binder selection” value [1] is reported as 3.4.

With `CC(=O)c1c(O)cc(O)cc1O` [Phloracetophenone] the “Enrichment Fold, HSP70 binder selection” value [1] was 3.5.

For `COC(=O)Nc1nc2ccc(C(=O)c3cccs3)cc2[nH]1` [Nocodazole, reference compound], the “Enrichment Fold, HSP70 binder selection” value [1] was 3.9 and the “Fold Change, enrichment folds for PARP-1 binder selection” value [2] was 2.06.

For `Cn1cnc2c1c(=O)[nH]c(=O)n2C` [Theobromine, reference compound], the “Enrichment Fold, HSP70 binder selection” value [1] was 4.3 and the “Fold Change, enrichment folds for PARP-1 binder selection” value [2] was 2.42.

With `O=C1C[C@@H](c2ccc(O[C@@H]3O[C@H](CO)[C@@H](O)[C@H](O)[C@H]3O)cc2)Oc2cc(O)ccc21` [Liquiritin] the “Enrichment Fold, HSP70 binder selection” value [1] was 3.9 and the “Fold Change, enrichment folds for PARP-1 binder selection” value [2] was 2.66.

`Cc1c(F)cccc1NC(=O)Nc1ccc(Cl)c(S(=O)(=O)[C@H]2CCCNC2)c1O` [Danirixin] was tested, and the “Enrichment Fold, HSP70 binder selection” value [1] was 2.9.

(+)-Catechin Hydrate was tested, and the “Enrichment Fold, HSP70 binder selection” value [1] was 3.8.

For `O=C(O[C@@H]1Cc2c(O)cc(O)cc2O[C@@H]1c1ccc(O)c(O)c1)c1cc(O)c(O)c(O)c1` [(−)-Epicatechin gallate, (−)- Epicatechingallate], the “Enrichment Fold, HSP70 binder selection” value [1] was 5.0 and the “Fold Change, enrichment folds for PARP-1 binder selection” value [2] was 2.81.

`COc1ccc(-c2coc3cc(O)cc(O)c3c2=O)cc1` [Biochanin A] was tested, and the “Enrichment Fold, HSP70 binder selection” value [1] was 3.7.

With `COc1cc2c(cc1O)CC[n+]1cc3c(OC)c(OC)ccc3cc1-2` [Jatrorrhizine hydrochloride] the “Enrichment Fold, HSP70 binder selection” value [1] was 4.5 and the “Fold Change, enrichment folds for PARP-1 binder selection” value [2] was 2.23.

For `O=c1ccc2cc(O)c(O)cc2o1` [Esculetin], the “Enrichment Fold, HSP70 binder selection” value [1] was 4.1.

In the case of `COc1c(O)cc2c(c1O)[C@@H]1O[C@H](CO)[C@@H](O)[C@H](O)[C@H]1OC2=O` [Bengenin], the “Enrichment Fold, HSP70 binder selection” value [1] is reported as 3.6.

In the case of `COC1=C[C@@H]2[C@@H]3Cc4ccc(OC)c(O)c4[C@]2(CCN3C)CC1=O` [sinomenine], the “Enrichment Fold, HSP70 binder selection” value [1] is reported as 3.2.

For `COc1cc2ccc(=O)oc2c(O)c1O` [Fraxetin], the “Enrichment Fold, HSP70 binder selection” value [1] was 3.3 and the “Fold Change, enrichment folds for PARP-1 binder selection” value [2] was 2.01.

`C[C@@H]1O[C@@H](O[C@H]2[C@H](Oc3cc(O)c4c(c3)O[C@H](c3ccc(O)cc3)CC4=O)O[C@H](CO)[C@@H](O)[C@@H]2O)[C@H](O)[C@H](O)[C@H]1O` [Naringin] was tested, and the “Enrichment Fold, HSP70 binder selection” value [1] was 4.5, the “Selected among enriched chemicals in PARP-1 nDEL screening” value ([2]; hit selection, FIG. 20(b), FIG. 21) was “selected” and the “Fold Change, enrichment folds for PARP-1 binder selection” value [2] was 2.17.

For `O=C(O)c1ccc(O)c(O)c1` [Protocatechuic acid], the “Enrichment Fold, HSP70 binder selection” value [1] was 3.8.

With `O=c1cc(-c2ccccc2)oc2cc(O)c(O)c(O)c12` [Baicalein] the “Enrichment Fold, HSP70 binder selection” value [1] was 3.6.

`CNCC(O)c1ccc(O)cc1` (stereo not drawn) [Synephrine] was tested, and the “Enrichment Fold, HSP70 binder selection” value [1] was 3.2 and the “Fold Change, enrichment folds for PARP-1 binder selection” value [2] was 2.17.

With `Oc1cc(O)c2c(c1)O[C@H](c1cc(O)c(O)c(O)c1)[C@H](O)C2` [Epigallocatechin, epigallocatechin] the “Enrichment Fold, HSP70 binder selection” value [1] was 4.3 and the “Fold Change, enrichment folds for PARP-1 binder selection” value [2] was 2.53.

In the case of `O=c1c(O)c(-c2ccc(O)c(O)c2)oc2cc(O)cc(O)c12` [quercetin, Quercetin], the “Enrichment Fold, HSP70 binder selection” value [1] is reported as 2.8.

With `COC(=O)c1ccc(O)c(O)c1` [Methyl protocatechuate] the “Enrichment Fold, HSP70 binder selection” value [1] was 3.6.

For `O=C(CCc1ccc(O)cc1)c1c(O)cc(O)cc1O[C@@H]1O[C@H](CO)[C@@H](O)[C@H](O)[C@H]1O` [Phlorizin], the “Enrichment Fold, HSP70 binder selection” value [1] was 3.8.

For `c1coc(CNc2ncnc3[nH]cnc23)c1` [Kinetin], the “Enrichment Fold, HSP70 binder selection” value [1] was 2.8.

For `COc1cc2c(cc1O)CC[n+]1cc3c(OC)c(OC)ccc3cc1-2` [Jatrorrhizine], the “Enrichment Fold, HSP70 binder selection” value [1] was 3.7 and the “Fold Change, enrichment folds for PARP-1 binder selection” value [2] was 2.04.

`O=c1c2ccccc2nc2n1CCc1c-2[nH]c2ccccc12` [rutaecarpin] was tested, and the “Enrichment Fold, HSP70 binder selection” value [1] was 3.2.

`O=c1ccc2ccc(O)c(O)c2o1` [Daphnetin] was tested, and the “Enrichment Fold, HSP70 binder selection” value [1] was 3.9 and the “Fold Change, enrichment folds for PARP-1 binder selection” value [2] was 2.17.

For `O=C1c2ccccc2C(=O)c2c1ccc(O)c2O` [Alizarin], the “Enrichment Fold, HSP70 binder selection” value [1] was 4.3 and the “Fold Change, enrichment folds for PARP-1 binder selection” value [2] was 2.02.

`COc1cc(C(=O)O[C@H]2[C@@H]3C=CO[C@@H](O[C@@H]4O[C@H](CO)[C@@H](O)[C@H](O)[C@H]4O)[C@@H]3[C@@]3(CO)O[C@@H]23)ccc1O` [Picroside II] was tested, and the “Enrichment Fold, HSP70 binder selection” value [1] was 4.0.

`Oc1cc(O)c2c(c1)O[C@H](c1ccc(O)c(O)c1)[C@@H](O)C2` [(+) Catechin] was tested, and the “Enrichment Fold, HSP70 binder selection” value [1] was 2.7.

In the case of `O=C1C[C@@H](c2ccc(O)cc2)Oc2cc(O)ccc21` [Liquiritigenin], the “Enrichment Fold, HSP70 binder selection” value [1] is reported as 2.7.

In the case of `CC1=CC(=O)c2c(O)cccc2C1=O` [Plumbagin], the “Enrichment Fold, HSP70 binder selection” value [1] is reported as 4.4 and the “Fold Change, enrichment folds for PARP-1 binder selection” value [2] is reported as 2.97.

For `Cn1c(=O)c2c(ncn2CC(=O)O)n(C)c1=O` [Theophylline-7-acetic acid, Theophylline-7-acetic acid, reference compound], the “Enrichment Fold, HSP70 binder selection” value [1] was 3.3.

For `COc1cc2ccc(=O)oc2cc1O` [Scopoletin], the “Enrichment Fold, HSP70 binder selection” value [1] was 6.0 and the “Fold Change, enrichment folds for PARP-1 binder selection” value [2] was 2.82.

In the case of `c1ccc(CNc2ncnc3nc[nH]c23)cc1` [Benzyladenine], the “Enrichment Fold, HSP70 binder selection” value [1] is reported as 3.6.

For `C[C@H]1[C@H](OC(=O)CCC(=O)O)O[C@@H]2O[C@@]3(C)CC[C@H]4[C@H](C)CC[C@@H]1[C@@]24OO3` [Artesunate], the “Enrichment Fold, HSP70 binder selection” value [1] was 2.4.

With `O=c1ccc2ccc(O)cc2o1` [7-Hydroxycoumarin] the “Enrichment Fold, HSP70 binder selection” value [1] was 4.2.
